# Results as given in PubChem BioAssay AID2060884 (Molecular Pharmacology Branch, DTP, NCI, 2025).
# Several values for one entry are separate records, joined by “and”; a condition that tells them apart may be missing. Identical values can stand only once.
# System: NCI-H929 complex spheroids, viability % test/control
# Assay: Anticancer human tumor NCI-H929 cell line growth inhibition [RAS];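 note: compound exposure lasted seven days before viability was read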;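 for viability, T/C: 100% = DMSO vehicle control viability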
# Details: for viability, T/C: stronger effect = lower value
# Procedure, shortened: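 Tumour cells grown as complex spheroids with HUVEC endothelial cells and mesenchymal stem cells, treated with RAS pathway inhibitor combinations. Each agent spans half-log steps from near clinical Cmax, or 10 microM where Cmax is unknown.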
# [1] = curve of first compound, second compound 0.0316 µM
# [2] = curve of first compound, second compound 0.1 µM
# [3] = curve of first compound, second compound 0.316 µM
# [4] = curve of first compound, second compound 1 µM
# [5] = curve of first compound, second compound 3.16 µM
# [6] = curve of first compound, second compound 10 µM
# [7] = second compound 0.0316 µM, first compound 0.0316 µM
# [8] = second compound 0.0316 µM, first compound 0.1 µM
# [9] = second compound 0.0316 µM, first compound 0.316 µM
# [10] = second compound 0.0316 µM, first compound 1 µM
# [11] = second compound 0.1 µM, first compound 0.0316 µM
# [12] = second compound 0.1 µM, first compound 0.1 µM
# [13] = second compound 0.1 µM, first compound 0.316 µM
# [14] = second compound 0.1 µM, first compound 1 µM
# [15] = second compound 0.316 µM, first compound 0.0316 µM
# [16] = second compound 0.316 µM, first compound 0.1 µM
# [17] = second compound 0.316 µM, first compound 0.316 µM
# [18] = second compound 0.316 µM, first compound 1 µM
# [19] = second compound 1 µM, first compound 0.0316 µM
# [20] = second compound 1 µM, first compound 0.1 µM
# [21] = second compound 1 µM, first compound 0.316 µM
# [22] = second compound 1 µM, first compound 1 µM
# [23] = second compound 3.16 µM, first compound 0.0316 µM
# [24] = second compound 3.16 µM, first compound 0.1 µM
# [25] = second compound 3.16 µM, first compound 0.316 µM
# [26] = second compound 3.16 µM, first compound 1 µM
# [27] = second compound 10 µM, first compound 0.0316 µM
# [28] = second compound 10 µM, first compound 0.1 µM
# [29] = second compound 10 µM, first compound 0.316 µM
# [30] = second compound 10 µM, first compound 1 µM
smiles,measurement,setting,value
C[C@@H](NC(=O)c1ncnc(N)c1Cl)c1ncc(C(=O)Nc2cc(C(F)(F)F)c(Cl)cn2)s1 + C#Cc1c(F)ccc2cc(O)cc(-c3ncc4c(N5CC6CCC(C5)N6)nc(OCC56CCCN5CC(F)C6)nc4c3F)c12,IC50,[1],> 10 µM
same,IC50,[2],> 10 µM
same,IC50,[3],> 10 µM
same,IC50,[4],> 10 µM
same,IC50,[5],> 10 µM
same,IC50,[6],> 10 µM
same,"viability, T/C",[7],91.7%
same,"viability, T/C",[8],89%
same,"viability, T/C",[9],93.6%
same,"viability, T/C",[10],79.9%
same,"viability, T/C","second compound 0.0316 µM, first compound 3.16 µM",92.2%
same,"viability, T/C","second compound 0.0316 µM, first compound 10 µM",108%
same,"viability, T/C",[11],96.2%
same,"viability, T/C",[12],88.3%
same,"viability, T/C",[13],89.4%
same,"viability, T/C",[14],80.7%
same,"viability, T/C","second compound 0.1 µM, first compound 3.16 µM",95.1%
same,"viability, T/C","second compound 0.1 µM, first compound 10 µM",110%
same,"viability, T/C",[15],95.3%
same,"viability, T/C",[16],94%
same,"viability, T/C",[17],91.5%
same,"viability, T/C",[18],85.9%
same,"viability, T/C","second compound 0.316 µM, first compound 3.16 µM",96.4%
same,"viability, T/C","second compound 0.316 µM, first compound 10 µM",106%
same,"viability, T/C",[19],94.9%
same,"viability, T/C",[20],91.2%
same,"viability, T/C",[21],94.8%
same,"viability, T/C",[22],84.3%
same,"viability, T/C","second compound 1 µM, first compound 3.16 µM",84.1%
same,"viability, T/C","second compound 1 µM, first compound 10 µM",109%
same,"viability, T/C",[23],89.4%
same,"viability, T/C",[24],94.9%
same,"viability, T/C",[25],82.6%
same,"viability, T/C",[26],90.7%
same,"viability, T/C","second compound 3.16 µM, first compound 3.16 µM",89.8%
same,"viability, T/C","second compound 3.16 µM, first compound 10 µM",111%
same,"viability, T/C",[27],77.3%
same,"viability, T/C",[28],59.4%
same,"viability, T/C",[29],79.2%
same,"viability, T/C",[30],74.1%
same,"viability, T/C","second compound 10 µM, first compound 3.16 µM",92.1%
same,"viability, T/C","second compound 10 µM, first compound 10 µM",101%
CC(Nc1ccc2c(c1)OCCn1cc(N3C(=O)OCC3C(F)F)nc1-2)C(N)=O (stereo unspecified),"viability, T/C",compound 0.0316 µM,106% [middle of 4 runs]
same,"viability, T/C",compound 0.1 µM,102% [middle of 4 runs]
same,"viability, T/C",compound 0.316 µM,107% (2×) and 97.8% and 109%
same,"viability, T/C",compound 1 µM,108% [middle of 4 runs]
same,IC50,curve of compound,> 10 µM and 6.14 µM and 6.23 µM
C=CC(=O)N1CCN(c2nc(OCC3CCCN3C)nc3c(F)c(-c4nc(N)cc(C)c4C(F)(F)F)c(Cl)cc23)C(C)C1 (stereo unspecified) + C#Cc1c(F)ccc2cc(O)cc(-c3ncc4c(N5CC6CCC(C5)N6)nc(OCC56CCCN5CC(F)C6)nc4c3F)c12,IC50,[1],> 1 µM
same,IC50,[2],> 1 µM
same,IC50,[3],> 1 µM
same,IC50,[4],> 1 µM
same,IC50,[5],> 1 µM
same,IC50,[6],> 1 µM
same,"viability, T/C","second compound 0.0316 µM, first compound 0.00316 µM",102%
same,"viability, T/C","second compound 0.0316 µM, first compound 0.01 µM",97.5%
same,"viability, T/C",[7],99.1%
same,"viability, T/C",[8],97.3%
same,"viability, T/C",[9],108%
same,"viability, T/C",[10],103%
same,"viability, T/C","second compound 0.1 µM, first compound 0.00316 µM",98.8%
same,"viability, T/C","second compound 0.1 µM, first compound 0.01 µM",101%
same,"viability, T/C",[11],102%
same,"viability, T/C",[12],106%
same,"viability, T/C",[13],107%
same,"viability, T/C",[14],112%
same,"viability, T/C","second compound 0.316 µM, first compound 0.00316 µM",96.1%
same,"viability, T/C","second compound 0.316 µM, first compound 0.01 µM",104%
same,"viability, T/C",[15],101%
same,"viability, T/C",[16],104%
same,"viability, T/C",[17],106%
same,"viability, T/C",[18],110%
same,"viability, T/C","second compound 1 µM, first compound 0.00316 µM",95.8%
same,"viability, T/C","second compound 1 µM, first compound 0.01 µM",104%
same,"viability, T/C",[19],107%
same,"viability, T/C",[20],105%
same,"viability, T/C",[21],101%
same,"viability, T/C",[22],112%
same,"viability, T/C","second compound 3.16 µM, first compound 0.00316 µM",103%
same,"viability, T/C","second compound 3.16 µM, first compound 0.01 µM",99.8%
same,"viability, T/C",[23],103%
same,"viability, T/C",[24],104%
same,"viability, T/C",[25],106%
same,"viability, T/C",[26],115%
same,"viability, T/C","second compound 10 µM, first compound 0.00316 µM",104%
same,"viability, T/C","second compound 10 µM, first compound 0.01 µM",101%
same,"viability, T/C",[27],100%
same,"viability, T/C",[28],105%
same,"viability, T/C",[29],99.6%
same,"viability, T/C",[30],104%
CCc1c2c(nc3ccc(O)cc13)-c1cc3c(c(=O)n1C2)COC(=O)[C@]3(O)CC + CCn1c(-c2cc(N3CCN(C)CC3)cnc2C(C)OC)c2c3cc(ccc31)-c1csc(n1)CC(NC(=O)C1CC1C)C(=O)N1CCCC(N1)C(=O)OCC(C)(C)C2,IC50,"curve of first compound, second compound 0.000949 µM",0.00188 µM
same,IC50,"curve of first compound, second compound 0.003 µM",0.00218 µM
same,IC50,"curve of first compound, second compound 0.00949 µM",0.002 µM
same,IC50,"curve of first compound, second compound 0.03 µM",< 0.000949 µM
same,IC50,"curve of first compound, second compound 0.0949 µM",< 0.000949 µM
same,IC50,"curve of first compound, second compound 0.3 µM",< 0.000949 µM
same,"viability, T/C","second compound 0.000949 µM, first compound 0.000949 µM",108%
same,"viability, T/C","second compound 0.000949 µM, first compound 0.003 µM",10.3%
same,"viability, T/C","second compound 0.000949 µM, first compound 0.00949 µM",1.4%
same,"viability, T/C","second compound 0.000949 µM, first compound 0.03 µM",2.14%
same,"viability, T/C","second compound 0.000949 µM, first compound 0.0949 µM",0.7%
same,"viability, T/C","second compound 0.000949 µM, first compound 0.3 µM",0.99%
same,"viability, T/C","second compound 0.003 µM, first compound 0.000949 µM",103%
same,"viability, T/C","second compound 0.003 µM, first compound 0.003 µM",29.6%
same,"viability, T/C","second compound 0.003 µM, first compound 0.00949 µM",1.69%
same,"viability, T/C","second compound 0.003 µM, first compound 0.03 µM",1.32%
same,"viability, T/C","second compound 0.003 µM, first compound 0.0949 µM",1.58%
same,"viability, T/C","second compound 0.003 µM, first compound 0.3 µM",1.28%
same,"viability, T/C","second compound 0.00949 µM, first compound 0.000949 µM",114%
same,"viability, T/C","second compound 0.00949 µM, first compound 0.003 µM",15.1%
same,"viability, T/C","second compound 0.00949 µM, first compound 0.00949 µM",1.72%
same,"viability, T/C","second compound 0.00949 µM, first compound 0.03 µM",1.61%
same,"viability, T/C","second compound 0.00949 µM, first compound 0.0949 µM",1.9%
same,"viability, T/C","second compound 0.00949 µM, first compound 0.3 µM",0.54%
same,"viability, T/C","second compound 0.03 µM, first compound 0.000949 µM",19.6%
same,"viability, T/C","second compound 0.03 µM, first compound 0.003 µM",2.7%
same,"viability, T/C","second compound 0.03 µM, first compound 0.00949 µM",1.2%
same,"viability, T/C","second compound 0.03 µM, first compound 0.03 µM",1.06%
same,"viability, T/C","second compound 0.03 µM, first compound 0.0949 µM",1.1%
same,"viability, T/C","second compound 0.03 µM, first compound 0.3 µM",0.6%
same,"viability, T/C","second compound 0.0949 µM, first compound 0.000949 µM",4.5%
same,"viability, T/C","second compound 0.0949 µM, first compound 0.003 µM",1.29%
same,"viability, T/C","second compound 0.0949 µM, first compound 0.00949 µM",1.45%
same,"viability, T/C","second compound 0.0949 µM, first compound 0.03 µM",0.94%
same,"viability, T/C","second compound 0.0949 µM, first compound 0.0949 µM",1.04%
same,"viability, T/C","second compound 0.0949 µM, first compound 0.3 µM",0.39%
same,"viability, T/C","second compound 0.3 µM, first compound 0.000949 µM",2.56%
same,"viability, T/C","second compound 0.3 µM, first compound 0.003 µM",1.55%
same,"viability, T/C","second compound 0.3 µM, first compound 0.00949 µM",0.57%
same,"viability, T/C","second compound 0.3 µM, first compound 0.03 µM",0.84%
same,"viability, T/C","second compound 0.3 µM, first compound 0.0949 µM",1.38%
same,"viability, T/C","second compound 0.3 µM, first compound 0.3 µM",0.4%
